This test concerns whole body oxygen consumption. Kind of test: In vivo screen: whole body (resting) oxygen consumption in fatty Zucker rats by indirect calorimetry. The settings on record: male fatty Zucker rats, oral gavage once daily for 6 days, measured the day after the last dose. On the procedure:
This in vivo screen is designed to evaluate the efficacy and cardiac effects of compounds that are tissue selective thyroid hormone agonists. The efficacy endpoints measured are whole body oxygen consumption and the activity of liver mitochrondrial alpha-glycerophosphate dehydrogenase (mGPDH). The cardiac endpoints that are measured are heart weight and heart mGPDH activity. The protocol involves dosing fatty Zucker rats for 6 days, then measuring oxygen consumption and harvesting of tissues for preparation of mitochondria and assaying of enzyme activity. […]
Oxygen consumption is measured the day after the last dose of compound is given using an open circuit, indirect calorimeter (Oxymax, Columbus Instruments, 950 North Hague Ave., Columbus, Ohio 43204). […] Rats are removed from their home cages, their body weights are recorded and they are placed in sealed chambers (43×43×10 cm) of the calorimeter and the chambers are placed in activity monitors. […] The activity monitors have 15 infrared light beams spaced one inch apart on each axis; ambulatory activity is recorded when two consecutive beams are broken and the results are recorded as counts. Oxygen consumption and ambulatory activity are measured every 10 minutes for 5-6.5 hours. […]

For `Cc1cc(NC(=O)C(=O)O)cc(C)c1Oc1ccc(O)c(C(C)C)c1` [CGS-23425, N-[3,5-dimethyl-4-(4′-hydroxy-3′-isopropylphenoxy)-phenyl]-oxamic acid], for the setting “dose of 1.0 mg/kg body weight”, the stimulated oxygen consumption came to 27%.

Where the note is “doses of 0.005 to 0.3 mg/kg body weight”, `CCOC(=O)C(=O)Nc1cc(C)c(Oc2ccc(O)c(C(O)c3ccc(F)cc3)c2)c(C)c1` (centres unmarked) [CGS-26214, ethyl N-[4-[3′-[(4-fluorophenyl)hydroxymethyl]-4′-hydroxyphenoxy]-3,5-dimethylphenyl]oxamate] returned a stimulated oxygen consumption of 14 to 31%.

Source of the values: patent US6555578B2, “Thyromimetic antiobesity agents” (Pfizer Inc., priority 1999, dated 2003).
